Test results as given in ChEMBL document CHEMBL5550150, “Discovery of 9H-pyrimido[4,5-b]indole derivatives as dual RET/TRKA inhibitors” (Bioorg Med Chem, 2024).
Active and inactive are the calls of the source. The rule behind the calls is not given here.

Legend:
LC-2-ad [1] = assay: Induction of cell cycle arrest in human LC-2-ad cells assessed as accumulation of cells at G1 phase at 1 uM incubated for 24 hrs by flow cytometry analysis; format: functional, cell-based
[2] = target: T1, High affinity nerve growth factor receptor (Homo sapiens, UniProt P04629); assay: Inhibition of TRK autophosphorylation (unknown origin)
Target sequence in this assay (P04629 33-796 limits assumed): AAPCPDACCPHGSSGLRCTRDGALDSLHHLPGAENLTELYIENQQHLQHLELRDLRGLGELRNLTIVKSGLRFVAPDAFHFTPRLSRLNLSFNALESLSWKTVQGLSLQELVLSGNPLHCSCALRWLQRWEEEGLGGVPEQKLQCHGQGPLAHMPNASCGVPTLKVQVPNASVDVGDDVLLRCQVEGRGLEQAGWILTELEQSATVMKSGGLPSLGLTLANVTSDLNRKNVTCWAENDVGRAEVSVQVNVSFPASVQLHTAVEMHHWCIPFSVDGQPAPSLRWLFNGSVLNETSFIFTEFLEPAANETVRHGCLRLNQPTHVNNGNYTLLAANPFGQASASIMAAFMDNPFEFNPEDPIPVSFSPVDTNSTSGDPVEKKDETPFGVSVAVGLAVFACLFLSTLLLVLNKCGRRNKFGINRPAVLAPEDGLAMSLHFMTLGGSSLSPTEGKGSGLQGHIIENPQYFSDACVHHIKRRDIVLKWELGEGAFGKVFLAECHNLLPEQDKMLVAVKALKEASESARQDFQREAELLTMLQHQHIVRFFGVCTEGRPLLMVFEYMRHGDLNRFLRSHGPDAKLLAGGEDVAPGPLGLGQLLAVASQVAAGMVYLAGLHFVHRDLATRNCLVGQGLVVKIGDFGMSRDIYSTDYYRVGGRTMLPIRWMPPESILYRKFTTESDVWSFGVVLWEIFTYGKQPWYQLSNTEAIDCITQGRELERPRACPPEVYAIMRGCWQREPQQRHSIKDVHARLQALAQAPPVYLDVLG

[3] = target: T1, High affinity nerve growth factor receptor; assay: Inhibition of TRK autophosphorylation in human LC-2-ad cells at 0.01 to 1 uM measured after 24 hrs by Western blot analysis; format: cell-based; settings: dose 0.01-1 µM
Target sequence in this assay (P04629 33-796 limits assumed): as above

[4] = target: T1, High affinity nerve growth factor receptor; assay: Inhibition of TRK autophosphorylation in human KM12 cells at 0.01 to 1 uM measured after 24 hrs by Western blot analysis; format: cell-based; settings: dose 0.01-1 µM
Target sequence in this assay (P04629 33-796 limits assumed): as above

KM12 [5] = assay: Induction of cell cycle arrest in human KM12 cells assessed as accumulation of cells at G1 phase at 1 uM incubated for 24 hrs by flow cytometry analysis; format: functional, cell-based
LC-2-ad [6] = assay: Antiproliferative activity against human LC-2-ad cells harbouring RET assessed as reduction in cell viability; format: functional
KM12 [7] = assay: Antiproliferative activity against human KM12 cells harbouring TRK assessed as reduction in cell viability; format: functional
A549 [8] = assay: Antiproliferative activity against human A549 cells harbouring KRAS assessed as reduction in cell viability; format: functional
LC-2-ad [9] = assay: Induction of cell cycle arrest in human LC-2-ad cells assessed as accumulation of cells at G1 phase at 0.01 uM incubated for 24 hrs by flow cytometry analysis; format: functional, cell-based
KM12 [10] = assay: Induction of cell cycle arrest in human KM12 cells assessed as accumulation of cells at G1 phase at 0.01 uM incubated for 24 hrs by flow cytometry analysis; format: functional, cell-based
A549 [11] = assay: Induction of cell cycle arrest in human A549 cells assessed as accumulation of cells at G1 phase at 0.01 uM incubated for 24 hrs by flow cytometry analysis; format: functional, cell-based
[12] = target: T1, High affinity nerve growth factor receptor; assay: Inhibition of TRK (unknown origin)
Target sequence in this assay (P04629 whole entry): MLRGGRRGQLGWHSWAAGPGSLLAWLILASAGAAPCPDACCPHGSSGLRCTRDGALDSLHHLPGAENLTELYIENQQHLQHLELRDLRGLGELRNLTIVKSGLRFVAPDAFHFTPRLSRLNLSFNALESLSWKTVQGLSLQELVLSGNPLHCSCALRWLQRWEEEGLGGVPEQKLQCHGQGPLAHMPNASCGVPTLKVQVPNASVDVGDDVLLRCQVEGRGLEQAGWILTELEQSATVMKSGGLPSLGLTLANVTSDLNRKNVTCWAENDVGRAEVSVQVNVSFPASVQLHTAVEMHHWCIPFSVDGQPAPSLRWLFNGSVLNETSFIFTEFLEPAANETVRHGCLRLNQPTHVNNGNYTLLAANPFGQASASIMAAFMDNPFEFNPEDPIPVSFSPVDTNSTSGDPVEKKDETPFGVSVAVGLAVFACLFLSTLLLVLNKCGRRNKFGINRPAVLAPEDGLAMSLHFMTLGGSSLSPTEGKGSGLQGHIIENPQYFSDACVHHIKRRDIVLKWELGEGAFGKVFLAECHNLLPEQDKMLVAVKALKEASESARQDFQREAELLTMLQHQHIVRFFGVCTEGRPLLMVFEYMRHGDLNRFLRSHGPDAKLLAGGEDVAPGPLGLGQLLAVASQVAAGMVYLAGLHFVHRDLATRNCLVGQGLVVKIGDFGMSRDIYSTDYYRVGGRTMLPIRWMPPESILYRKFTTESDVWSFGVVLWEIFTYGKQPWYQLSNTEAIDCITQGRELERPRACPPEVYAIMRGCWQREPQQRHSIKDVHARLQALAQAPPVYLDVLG

[13] = target: Proto-oncogene tyrosine-protein kinase receptor Ret (Homo sapiens, UniProt P07949); assay: Inhibition of 5FAM-tagged RET (unknown origin) using 5FAM-EPLYWSFPA as substrate incubated for 60 mins
Proto-oncogene tyrosine-protein kinase receptor Ret, sequence (P07949 whole entry): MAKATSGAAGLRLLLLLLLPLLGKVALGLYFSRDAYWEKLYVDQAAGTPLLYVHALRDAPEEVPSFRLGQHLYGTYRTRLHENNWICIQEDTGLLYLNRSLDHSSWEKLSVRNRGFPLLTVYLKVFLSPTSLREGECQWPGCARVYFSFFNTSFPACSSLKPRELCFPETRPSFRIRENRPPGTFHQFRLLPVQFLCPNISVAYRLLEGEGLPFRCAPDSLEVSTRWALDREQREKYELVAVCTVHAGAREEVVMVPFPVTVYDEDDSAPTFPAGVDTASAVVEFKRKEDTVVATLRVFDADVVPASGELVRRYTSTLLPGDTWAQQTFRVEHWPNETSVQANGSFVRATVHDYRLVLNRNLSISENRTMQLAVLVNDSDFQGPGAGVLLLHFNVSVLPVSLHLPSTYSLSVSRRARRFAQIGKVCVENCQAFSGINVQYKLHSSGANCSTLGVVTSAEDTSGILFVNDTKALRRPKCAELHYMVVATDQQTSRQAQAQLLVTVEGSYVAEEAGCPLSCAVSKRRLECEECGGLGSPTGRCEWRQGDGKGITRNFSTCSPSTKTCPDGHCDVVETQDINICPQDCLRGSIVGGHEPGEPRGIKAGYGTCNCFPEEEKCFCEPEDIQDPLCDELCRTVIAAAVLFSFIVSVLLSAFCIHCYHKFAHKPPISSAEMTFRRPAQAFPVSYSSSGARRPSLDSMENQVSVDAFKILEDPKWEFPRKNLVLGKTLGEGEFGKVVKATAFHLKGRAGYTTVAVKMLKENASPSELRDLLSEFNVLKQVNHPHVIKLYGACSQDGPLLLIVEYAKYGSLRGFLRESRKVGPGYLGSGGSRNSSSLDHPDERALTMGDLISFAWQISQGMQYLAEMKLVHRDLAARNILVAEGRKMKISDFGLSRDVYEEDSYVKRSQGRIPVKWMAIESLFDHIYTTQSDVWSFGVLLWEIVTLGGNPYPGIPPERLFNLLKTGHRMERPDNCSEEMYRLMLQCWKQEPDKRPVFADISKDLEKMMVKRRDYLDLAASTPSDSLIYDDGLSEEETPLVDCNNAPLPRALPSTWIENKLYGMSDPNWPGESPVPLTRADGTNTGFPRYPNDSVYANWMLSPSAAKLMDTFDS

SMILES	inhibition [2]	Activity (LC-2-ad [1])	Activity (KM12 [5])	GC50 (LC-2-ad [6])	GC50 (KM12 [7])	GC50 (A549 [8])	further results
CNC(=O)c1cc(Oc2ccc(NC(=O)Nc3ccc(Cl)c(C(F)(F)F)c3)cc2)ccn1 [SORAFENIB]				540 nM	3820 nM	7200 nM	Activity (LC-2-ad [9]): Active; Activity (KM12 [10]): Active; Activity (A549 [11]): Active
Cn1cc(-c2ccc3c(c2)ncn3-c2ccc(CC(=O)Nc3cc(C(C)(C)C)on3)cc2)cn1							IC50 [12]: 1.6 nM; IC50 [13]: 1 nM
COc1cc2nccc(Oc3ccc(NC(=O)C4(C(=O)Nc5ccc(F)cc5)CC4)cc3)c2cc1OC [CABOZANTINIB]							IC50 [12]: 79 nM
O=C(Cc1ccc(Nc2ncnc3[nH]c4ccccc4c23)cc1)Nc1cccc(C(F)(F)F)c1				940 nM	490 nM	>10000 nM	
C[C@@H]1CCc2ncc(F)cc2[C@H]2CCCN2c2ccn3ncc(c3n2)C(=O)N1 [SELITRECTINIB]				25980 nM	5 nM	>40000 nM	Activity (LC-2-ad [9]): Active; Activity (KM12 [10]): Active; Activity (A549 [11]): Active
COCCn1cc(-c2ccc3c(c2)[nH]c2ncnc(Nc4ccc(CC(=O)Nc5cc(C(C)(C)C)on5)cc4)c23)cn1				360 nM	590 nM	5880 nM	

Continued, in another order:

inhibition [2]	SMILES	Activity (LC-2-ad [1])	Activity (KM12 [5])	GC50 (LC-2-ad [6])	GC50 (KM12 [7])	GC50 (A549 [8])	further results
Active	Cn1nc(C(C)(C)C)cc1NC(=O)Cc1ccc(Nc2ncnc3[nH]c4ccccc4c23)cc1	Active	Active				inhibition [3]: Active; inhibition [4]: Active
Active	Cn1cc(-c2ccc3c(c2)[nH]c2ncnc(Nc4ccc(CC(=O)Nc5cc(C(C)(C)C)on5)cc4)c23)cn1	Active	Active				
Active	Cn1cc(-c2ccc3c(c2)[nH]c2ncnc(Nc4ccc(CC(=O)Nc5cc(C(C)(C)C)nn5C)cc4)c23)cn1	Active	Active				inhibition [3]: Active; inhibition [4]: Active
